SMILES strings stand for the structures.

The results in this text go back to patent US10973850B2, “Composition comprising tricalcium phosphate and gelatin for use in a method for the treatment of dyspepsia and related disorders” (S.B.M. S.R.L., priority 2015, dated 2021).

The nature of this assay: Protective effect: time to perforation of a sheet of wheat starch exposed to concentrated HCl. The following applies: end point a clear-cut hole. The method, then:
The barrier-like effect of gelatin was experimentally assessed. A Sheet of wheat starch was exposed to a concentrated solution of HCl. The protective action was measured as an extension of time to perforation in comparison to control. The end consisted of a clear-cut hole.
The new threshold matched the potentially dangerous HCl concentration in the stomach at the above-mentioned ration, corresponding to about 6 parts of gelatin to 1 part of TCP.

Consider `O=P([O-])([O-])[O-].O=P([O-])([O-])[O-].[Ca+2].[Ca+2].[Ca+2]` [TCP, tricalcium phosphate], for which the “protective action, extension of time to perforation in comparison to control” value is reported as “almost equally effective”.
